Laboratory results taken from ChEMBL document CHEMBL1201862, “PubChem BioAssay data set” (2004).
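Cells were grown in 96-well plates and exposed to each compound for 48 hours at five concentrations; endpoints were interpolated linearly between bracketing concentrations, or set to the highest concentration if not reached. The concentration for 50% growth inhibition is given as GI50.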 Activity calls are given as the source filed them. Cut-off read from the data, not from the text of the source: active = GI50 up to about 1.1 µM and inactive = higher.

Experiments:
Experiment in all cases: DTP human tumour cell line panel, 48 h
CCRF-CEM = tested on: CCRF-CEM
COLO 205 = tested on: COLO 205
SK-OV-3 = tested on: SK-OV-3
IGROV-1 = tested on: IGROV-1
Malme-3M = tested on: Malme-3M
SR = tested on: SR
HCC 2998 = tested on: HCC 2998
NCI-H23 = tested on: NCI-H23
RPMI-8226 = tested on: RPMI-8226
SNB-19 = tested on: SNB-19
SF-268 = tested on: SF-268
EKVX = tested on: EKVX
HCT-116 = tested on: HCT-116
CAKI-1 = tested on: CAKI-1
NCI-H226 = tested on: NCI-H226
RXF 393 = tested on: RXF 393

Measured: GI50

C[Si](C)(C)/C=C\CCCN1C(=O)CCC1=O
inactive: CCRF-CEM 64.7 µM | COLO 205 > 100 µM | SK-OV-3 > 100 µM | IGROV-1 > 100 µM | Malme-3M > 100 µM | SR > 100 µM | HCC 2998 > 100 µM | NCI-H23 > 100 µM | RPMI-8226 > 100 µM | SNB-19 > 100 µM | SF-268 > 100 µM | EKVX > 100 µM | HCT-116 > 100 µM

Nc1ccc(C(=O)NN2C(=O)C(Cl)C2c2cccc(O)c2)cc1 (configuration not stated)
inactive: CCRF-CEM 5.55 µM | COLO 205 17.1 µM | SK-OV-3 19.5 µM | CAKI-1 20.4 µM | NCI-H226 18.5 µM | IGROV-1 14.4 µM | Malme-3M 20.3 µM | HCC 2998 15.8 µM | NCI-H23 15.5 µM | RPMI-8226 14.7 µM | SNB-19 16.9 µM | SF-268 3.34 µM | EKVX 21.5 µM | HCT-116 4.4 µM

CC(=O)NS(=O)(=O)c1ccc(NC(=O)COC(=O)c2cccc3c(=O)c4ccccc4[nH]c23)cc1
inactive: CCRF-CEM > 100 µM | RXF 393 > 100 µM | COLO 205 > 100 µM | SK-OV-3 > 100 µM | NCI-H226 > 100 µM | IGROV-1 > 100 µM | Malme-3M > 100 µM | NCI-H23 > 100 µM | RPMI-8226 > 100 µM | SNB-19 > 100 µM | EKVX > 100 µM | HCT-116 > 100 µM

O[C@H]1[C@H]2[C@H](O)CCCN2C[C@H]1O [TRIDOLGOSIR]
inactive: CCRF-CEM 85.3 µM | RXF 393 > 100 µM | COLO 205 > 100 µM | SK-OV-3 > 100 µM | CAKI-1 > 100 µM | NCI-H226 > 100 µM | IGROV-1 > 100 µM | Malme-3M > 100 µM | HCC 2998 > 100 µM | NCI-H23 > 100 µM | RPMI-8226 > 100 µM | SNB-19 > 100 µM | SF-268 > 100 µM | EKVX > 100 µM | HCT-116 > 100 µM

c1ccc(NCn2cnc3ccccc32)cc1
inactive: CCRF-CEM 37.1 µM | RXF 393 > 100 µM | COLO 205 > 100 µM | SK-OV-3 > 100 µM | NCI-H226 > 100 µM | IGROV-1 > 100 µM | Malme-3M > 100 µM | NCI-H23 > 100 µM | RPMI-8226 25.9 µM | SNB-19 > 100 µM | SF-268 74.8 µM | EKVX > 100 µM | HCT-116 74.1 µM

O=C(CC1(O)C(=O)Nc2ccc([N+](=O)[O-])cc21)c1ccncc1 (configuration not stated)
inactive: CCRF-CEM 29 µM | RXF 393 14.8 µM | COLO 205 77.1 µM | SK-OV-3 > 100 µM | NCI-H226 83 µM | Malme-3M 21.8 µM | HCC 2998 67 µM | NCI-H23 22.1 µM | RPMI-8226 25.2 µM | SNB-19 54.3 µM | SF-268 36.7 µM | EKVX > 100 µM | HCT-116 30.8 µM

O=C(CSSCC(=O)OCCS(=O)(=O)Nc1ccc(Br)cc1)OCCS(=O)(=O)Nc1ccc(Br)cc1
inactive: CCRF-CEM 7.66 µM | RXF 393 3.23 µM | COLO 205 11.6 µM | SK-OV-3 18.9 µM | CAKI-1 2.83 µM | IGROV-1 17.3 µM | Malme-3M 3.8 µM | HCC 2998 7.8 µM | NCI-H23 11.4 µM | RPMI-8226 10 µM | SNB-19 32.8 µM | SF-268 13.9 µM | EKVX 26.5 µM

N#Cc1cccc(NC(=O)c2ccc(C(=O)O)c(C(=O)c3ccc(C(=O)O)c(C(=O)Nc4cccc(C#N)c4)c3)c2)c1
inactive: CCRF-CEM > 100 µM | RXF 393 > 100 µM | COLO 205 > 100 µM | SK-OV-3 > 100 µM | CAKI-1 > 100 µM | NCI-H226 > 100 µM | IGROV-1 > 100 µM | Malme-3M > 100 µM | NCI-H23 > 100 µM | RPMI-8226 > 100 µM | SNB-19 > 100 µM | SF-268 > 100 µM | EKVX > 100 µM | HCT-116 > 100 µM

C[N+](C)(C)CCOC(=O)/C=C/c1c[nH]cn1
inactive: CCRF-CEM > 500 µM | RXF 393 > 500 µM | COLO 205 > 500 µM | SK-OV-3 > 500 µM | CAKI-1 > 500 µM | NCI-H226 > 500 µM | IGROV-1 > 500 µM | Malme-3M > 500 µM | HCC 2998 > 500 µM | NCI-H23 > 500 µM | RPMI-8226 > 500 µM | SNB-19 > 500 µM | SF-268 > 500 µM | EKVX > 500 µM | HCT-116 > 500 µM

Fc1ccc(C2SCc3nc4ccccc4n32)cc1F (configuration not stated)
inactive: CCRF-CEM 34.1 µM | RXF 393 24.2 µM | COLO 205 27.6 µM | SK-OV-3 46.5 µM | CAKI-1 43.1 µM | IGROV-1 33.5 µM | Malme-3M 25.9 µM | HCC 2998 37.6 µM | NCI-H23 21.1 µM | RPMI-8226 13.3 µM | SNB-19 29.6 µM | SF-268 50.4 µM | EKVX 39.2 µM | HCT-116 26.8 µM

NC(=O)C12C3C4C1C1C2C3C41C(N)=O (configuration not stated)
inactive: CCRF-CEM > 100 µM | RXF 393 > 100 µM | COLO 205 > 100 µM | SK-OV-3 > 100 µM | CAKI-1 > 100 µM | NCI-H226 > 100 µM | IGROV-1 > 100 µM | HCC 2998 > 100 µM | NCI-H23 > 100 µM | RPMI-8226 > 100 µM | SNB-19 > 100 µM | SF-268 > 100 µM | EKVX > 100 µM | HCT-116 > 100 µM

CCOC(=O)/C(C#N)=C\Sc1ccccc1
inactive: CCRF-CEM 7.83 µM | RXF 393 16.8 µM | COLO 205 20.1 µM | SK-OV-3 36.6 µM | CAKI-1 22.3 µM | NCI-H226 16.7 µM | IGROV-1 10.2 µM | SR 4.71 µM | NCI-H23 28.3 µM | RPMI-8226 13.7 µM | SNB-19 33.5 µM | SF-268 3.73 µM | EKVX 27.2 µM | HCT-116 16.8 µM

CCOC(=O)C(=Cc1cc(OC)ccc1OC)C(=O)OCC
inactive: CCRF-CEM 2.95 µM | RXF 393 1.83 µM | COLO 205 4.88 µM | SK-OV-3 15.8 µM | CAKI-1 13.6 µM | NCI-H226 10.6 µM | IGROV-1 23.8 µM | Malme-3M 10.9 µM | HCC 2998 20 µM | NCI-H23 3.03 µM | RPMI-8226 3.44 µM | SNB-19 11.9 µM | SF-268 5.36 µM | EKVX 10.6 µM | HCT-116 14.4 µM

CC(c1ccccc1)C(O)S(=O)(=O)O (configuration not stated)
inactive: CCRF-CEM > 100 µM | RXF 393 > 100 µM | COLO 205 > 100 µM | SK-OV-3 > 100 µM | NCI-H226 > 100 µM | IGROV-1 > 100 µM | Malme-3M > 100 µM | NCI-H23 > 100 µM | RPMI-8226 > 100 µM | SNB-19 > 100 µM | SF-268 > 100 µM | EKVX > 100 µM | HCT-116 > 100 µM
